Among the data in PubChem BioAssay AID588656 (The Scripps Research Institute Molecular Screening Center, 2011) are inhibition and fold change values, retold here.

For assay [1], the target named is Mitogen-activated protein kinase 1 (Homo sapiens) (UniProt P28482). Briefly: total ERK1/2 protein level change, either direction, late-stage follow-up, counter-screen for KLF5 inhibitor project, HT29 cells, chemiluminescent western blot, powder samples (AID 588656). Conditions: HT29 cells, ERK1/2 western blot, 24 h; at 10 µM; stronger effect = higher value. (The purpose of a counterscreen is to sort out artefacts and off-target activity.)

The test system of assay [2] is HT29 cells, ERK1/2 western blot, 24 h. Described as above. Conditions: measured here: ERK1/2 protein fold change vs DMSO; at 10 µM.

Chain of Mitogen-activated protein kinase 1 (Homo sapiens) (P28482 whole entry, looked up): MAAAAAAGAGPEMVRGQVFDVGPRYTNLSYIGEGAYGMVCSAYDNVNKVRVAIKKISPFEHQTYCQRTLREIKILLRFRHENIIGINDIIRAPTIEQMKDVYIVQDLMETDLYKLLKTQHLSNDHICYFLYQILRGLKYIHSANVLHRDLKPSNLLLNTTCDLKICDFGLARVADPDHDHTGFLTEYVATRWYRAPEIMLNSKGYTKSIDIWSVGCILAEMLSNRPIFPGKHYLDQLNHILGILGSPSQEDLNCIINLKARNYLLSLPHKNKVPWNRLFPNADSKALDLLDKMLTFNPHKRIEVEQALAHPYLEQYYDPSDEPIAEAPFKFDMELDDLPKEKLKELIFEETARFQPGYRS

A word on the inhibition: it is the change of the read-out against control, counted positive when it falls. For the compound `CN(C(=O)CNC(=O)/C=C/c1cccc(Cl)c1)C1CCS(=O)(=O)C1` (stereo unspecified), in assay [1], the inhibition was -96.6%. Moreover, in assay [2], the fold change was determined as 1.97.
The matching figures for `CN(C(=O)COC(=O)/C=C/c1cccc([N+](=O)[O-])c1)C1CCS(=O)(=O)C1` (stereo unspecified): -46.4% and 1.46.
As for `CN(C(=O)CNC(=O)/C=C/c1cccc(Cl)c1)C1CCS(=O)(=O)CC1`, the inhibition in assay [1] is -96.5%. This compound gave a fold change in assay [2] of 1.97.
